Measured values from patent US20260345619A1 (Principia Biopharma Inc., priority 2023, published 2026).

Test: Pre-bronchodilator FEV1 and percent predicted FEV1 by spirometry, change from baseline
Type: in vivo, human
Conditions: 400 mg BID, Week 12
Procedure: Spirometry is a standard test to measure patients' lung function.
The primary endpoint was the proportion of patients with LOAC. The key secondary endpoint for the study was change in pre-bronchodilator FEV1 from baseline at EOT.
Reversibility is defined as an increase of the absolute FEV1 after administration of bronchodilator and is measured by spirometry as postbronchodilator increase in FEV1 in percent of the prebronchodilator FEV1. After spirometry for measuring prebronchodilator FEV1, participants were to receive 2-4 puffs of albuterol/salbutamol or levalbuterol/levosalbutamol from a primed MDI. The postbronchodilator spirometry may have been repeated several times within 30 minutes after administration of bronchodilator. Alternatively, and only if it was consistent with usual office practice (to be documented), reversibility may have been performed using inhalation of nebulized albuterol/salbutamol or levalbuterol/levosalbutamol.
Secondary endpoints included pre-bronchodilator FEV1 change from baseline at EOT, ACQ-5 score change from baseline, and AQLQ score change from baseline. Other secondary and exploratory endpoints are described in Table 2.

[1] = baseline FEV1 <2.022 L (median)
[2] = baseline FEV1 reversibility <12%
[3] = baseline FEV1 reversibility ≥12%
[4] = baseline FEV1 ≥2.022 L (median)
[5] = baseline IgE <210.8 IU/mL (median)
[6] = baseline IgE ≥210.8 IU/mL (median)
[7] = baseline blood eosinophils <0.15 10^9/L
[8] = baseline blood eosinophils <0.3 10^9/L
[9] = baseline blood eosinophils ≥0.15 10^9/L
[10] = baseline blood eosinophils ≥0.3 10^9/L
[11] = baseline percent predicted FEV1 <68% (median)
[12] = baseline percent predicted FEV1 ≥68% (median)

## CC(C)(C=C(C#N)C(=O)N1CCC[C@@H](n2nc(-c3ccc(Oc4ccccc4)cc3F)c3c(N)ncnc32)C1)N1CCN(C2COC2)CC1 (mixture of isomers) [rilzabrutinib, (R)-2-[3-[4-amino-3-(2-fluoro-4-phenoxy-phenyl)pyrazolo[3,4-d]pyrimidin-1-yl]piperidine-1-carbonyl]-4-methyl-4-[4-(oxetan-3-yl)piperazin-1-yl]pent-2-enenitrile]
Baseline BMI ≥30 kg/m^2
  Pre-bronchodilator FEV1 change from baseline, LS Mean: -0.04 L
  Pre-bronchodilator FEV1 change from baseline, LS Mean Diff vs. placebo: -0.13 L
  Pre-bronchodilator FEV1 change from baseline, Mean: -0.18 L
[1]
  Pre-bronchodilator FEV1 change from baseline, LS Mean: -0.08 L
  Pre-bronchodilator FEV1 change from baseline, LS Mean Diff vs. placebo: 0.04 L
  Pre-bronchodilator FEV1 change from baseline, Mean: -0.06 L
[2]
  Pre-bronchodilator FEV1 change from baseline, LS Mean: -0.23 L
  Pre-bronchodilator FEV1 change from baseline, LS Mean Diff vs. placebo: -0.00 L
  Pre-bronchodilator FEV1 change from baseline, Mean: -0.24 L
[3]
  Pre-bronchodilator FEV1 change from baseline, LS Mean: 0.07 L
  Pre-bronchodilator FEV1 change from baseline, LS Mean Diff vs. placebo: -0.05 L
  Pre-bronchodilator FEV1 change from baseline, Mean: 0.08 L
[4]
  Pre-bronchodilator FEV1 change from baseline, LS Mean: -0.09 L
  Pre-bronchodilator FEV1 change from baseline, LS Mean Diff vs. placebo: -0.03 L
  Pre-bronchodilator FEV1 change from baseline, Mean: -0.02 L
Baseline FeNO <25 ppb
  Pre-bronchodilator FEV1 change from baseline, LS Mean: -0.16 L
  Pre-bronchodilator FEV1 change from baseline, LS Mean Diff vs. placebo: 0.03 L
  Pre-bronchodilator FEV1 change from baseline, Mean: -0.12 L
Baseline FeNO <35 ppb
  Pre-bronchodilator FEV1 change from baseline, LS Mean: -0.19 L
  Pre-bronchodilator FEV1 change from baseline, LS Mean Diff vs. placebo: -0.04 L
  Pre-bronchodilator FEV1 change from baseline, Mean: -0.10 L
Baseline FeNO ≥25 ppb
  Pre-bronchodilator FEV1 change from baseline, LS Mean: -0.00 L
  Pre-bronchodilator FEV1 change from baseline, LS Mean Diff vs. placebo: -0.01 L
  Pre-bronchodilator FEV1 change from baseline, Mean: 0.01 L
Baseline FeNO ≥35 ppb
  Pre-bronchodilator FEV1 change from baseline, LS Mean: 0.05 L
  Pre-bronchodilator FEV1 change from baseline, LS Mean Diff vs. placebo: 0.06 L
  Pre-bronchodilator FEV1 change from baseline, Mean: 0.08 L
Baseline IgE <100 IU/mL
  Pre-bronchodilator FEV1 change from baseline, LS Mean: -0.11 L
  Pre-bronchodilator FEV1 change from baseline, LS Mean Diff vs. placebo: -0.03 L
  Pre-bronchodilator FEV1 change from baseline, Mean: -0.09 L
[5]
  Pre-bronchodilator FEV1 change from baseline, LS Mean: -0.11 L
  Pre-bronchodilator FEV1 change from baseline, LS Mean Diff vs. placebo: 0.01 L
  Pre-bronchodilator FEV1 change from baseline, Mean: -0.02 L
Baseline IgE ≥100 IU/mL
  Pre-bronchodilator FEV1 change from baseline, LS Mean: -0.04 L
  Pre-bronchodilator FEV1 change from baseline, LS Mean Diff vs. placebo: 0.02 L
  Pre-bronchodilator FEV1 change from baseline, Mean: -0.02 L
[6]
  Pre-bronchodilator FEV1 change from baseline, LS Mean: -0.02 L
  Pre-bronchodilator FEV1 change from baseline, LS Mean Diff vs. placebo: 0.01 L
  Pre-bronchodilator FEV1 change from baseline, Mean: -0.08 L
[7]
  Pre-bronchodilator FEV1 change from baseline, LS Mean: -0.08 L
  Pre-bronchodilator FEV1 change from baseline, LS Mean Diff vs. placebo: -0.04 L
  Pre-bronchodilator FEV1 change from baseline, Mean: -0.10 L
[8]
  Pre-bronchodilator FEV1 change from baseline, LS Mean: -0.15 L
  Pre-bronchodilator FEV1 change from baseline, LS Mean Diff vs. placebo: -0.07 L
  Pre-bronchodilator FEV1 change from baseline, Mean: -0.10 L
[9]
  Pre-bronchodilator FEV1 change from baseline, LS Mean: -0.03 L
  Pre-bronchodilator FEV1 change from baseline, LS Mean Diff vs. placebo: 0.07 L
  Pre-bronchodilator FEV1 change from baseline, Mean: -0.01 L
[10]
  Pre-bronchodilator FEV1 change from baseline, LS Mean Diff vs. placebo: 0.07 L
  Pre-bronchodilator FEV1 change from baseline, Mean: 0.04 L
[11]
  Pre-bronchodilator FEV1 change from baseline, LS Mean: -0.21 L
  Pre-bronchodilator FEV1 change from baseline, LS Mean Diff vs. placebo: 0.03 L
  Pre-bronchodilator FEV1 change from baseline, Mean: -0.05 L
[12]
  Pre-bronchodilator FEV1 change from baseline, LS Mean: -0.07 L
  Pre-bronchodilator FEV1 change from baseline, LS Mean Diff vs. placebo: -0.01 L
  Pre-bronchodilator FEV1 change from baseline, Mean: -0.02 L
Baseline weight <60 kg
  Pre-bronchodilator FEV1 change from baseline, Mean: -0.02 L
Baseline weight ≥60-<90 kg
  Pre-bronchodilator FEV1 change from baseline, LS Mean: -0.09 L
  Pre-bronchodilator FEV1 change from baseline, LS Mean Diff vs. placebo: 0.03 L
  Pre-bronchodilator FEV1 change from baseline, Mean: -0.01 L
